Data published in patent US20180228780A1, “3-(1H-PYRROLO[2,3-C]PYRIDIN-2-YL)-1H-INDAZOLES AND THERAPEUTIC USES THEREOF” (Samumed, LLC, priority 2015, published 2018).

Key:
Type in all cases: cell-based
[1] = tested on: Primary human fibroblasts derived from IPF patients (LL29 cells); experiment: Inhibition of the fibrotic process: αSMA staining in TGF-β1-treated LL29 fibroblasts; details: Fibroblast; for EC50: 96 h, LL29 cells, TGF-β1 20 ng/mL, 4 days, % αSMA-positive cells; for inhibition at 10 µM: read-out: percent inhibition at 10 μM
Text: Representative compounds were screened using primary human fibroblasts (derived from IFF patients) treated with TGF-β1 to determine their ability to inhibit the fibrotic process.
K. L., et.al., “RhoA signaling modulates cyclin D1 expression in human lung fibroblasts; implications for idiopathic pulmonary fibrosis”, Respiratory Research (2006), 7(1), 88] were obtained from American Type Culture Collection (ATCC) and expanded in F12 medium supplemented with 15% Fetal Bovine Serum and Penicillin/Streptomycin.
LL29 cells are plated at 1,500 cells/well in 80 μL/well F12 medium supplemented with 1% Fetal Bovine Serum. […] Wells treated with TGF-β1 and containing DMSO were used as controls. […] Following incubation for 4 days, SYTOX green nucleic acid stain (Life Technologies [Thermo Fisher Scientific]) was added to the wells at a final concentration of 1 μM and incubated at room temperature for 30 min.

[2] = tested on: IL-6 (THP-1 cells); experiment: IL-6 inhibition in THP-1 monocytes (HTRF); details: Homo sapiens; for EC50: IL-6 inhibition, THP-1 cells, HTRF, 10-point dose-response starting from 10 μM; for inhibition at 10 µM: THP-1, read-out: percentage in parentheses printed under EC50 >10
Experimental: Compound Screening: THP-1 cells were cultured in basal media with 1% FBS for 24 hours before the start of the assay. […] THP-1 cells were plated at 5000 cells/well in the 384-well plates and incubated at 37° C. for 2 h. 500 ng/mL of […] was added after 2 hours and cells were incubated for another 22 hours at 37° C. Plates were spun in a centrifuge for 1 minute at 10,000 rpm and a mixture of anti-IL6 XL665, and anti-IL6 Cryptate diluted in reconstitution buffer (Cisbio Inc.) was added to each well. Following incubation for 3 hrs at room temperature, Homogeneous Time-Resolved Fluorescence (HTRF) was measured using the Envision (Perkin Elmer) at 665 nm and […]. The ratio of fluorescence at 665 nm to 620 nm was used as a readout for IL6 quantification. All samples were processed in duplicate. Readings were normalized to DMSO treated cells and normalized activities were utilized for EC50 calculations using the dose-response log (inhibitor) vs. response-variable slope (four parameters) nonlinear regression feature available in GraphPad Prism 5.0 (or Dotmatics).

[3] = tested on: SW480 colon cancer cells; experiment: Cell viability assay (CellTiter-Blue) in SW480 colon cancer cells; details: Homo sapiens; for EC50: 96 h, SW480 cell viability, four days incubation; for inhibition at 10 µM: SW480, read-out: percent inhibition at 10 μM
Experimental: Representative compounds were screened using the following assay procedure to assess the effect on cell viability as described below.
Approximately 2×10^3 SW480 colon cancer cells were seeded into each well and allowed to incubate in the presence or absence of compound for four days at 37° C./5% CO2. Eight replicates of DMSO-treated cells served as controls and cells treated with compound were performed in duplicate.
After incubation, 20 μL of CellTiter-Blue (Promega) was added to each well allowed to incubate for approximately 3 hours. This reagent was a buffered solution which contains resazurin, metabolically active cells were able to reduce rezarurin (blue) into resorufin (pink) which was highly fluorescent. This measured fluorescence was used as a readout for cell viability.

[4] = tested on: Wnt activity (Sp5-Luc reporter, SW480 colon carcinoma cells); experiment: Screening assay for Wnt activity: Sp5-Luc reporter gene assay in SW480 cells; details: Homo sapiens; SW480 Sp5-Luc reporter, overnight incubation
Text: The screening assay for Wnt activity is described as follows. Reporter cell lines can be generated by stably transducing cancer cell lines (e.g., colon cancer) or primary cells (e.g., IEC-6 intestinal cells) with a lentiviral construct that includes a Wnt-responsive promoter driving expression of the firefly luciferase gene.
SW480 colon carcinoma cells were transduced with a lentiviral vector expressing luciferase with a human Sp5 promoter consisting of a sequence of eight TCF/LEF binding sites. SW480 cells stably expressing the Sp5-Luc reporter gene and a hygromycin resistance gene were selected by treatment with 150 μg/mL of hygromycin for 7 days. These stably transduced SW480 cells were expanded in cell culture and used for all further screening activities. […] For Sp5-Luc reporter gene assays, the cells were plated at 4,000 cells/well in 384-well plates with medium containing 1% fetal bovine serum and incubated overnight at 37° C. and 5% CO2. Following incubation, 20 μl of BrightGlo luminescence reagent (Promega) was added to each well of the 384-well assay plates. The plates were placed on an orbital shaker for 2 min and then luminescence was quantified using the Envision (Perkin Elmer) plate reader. Readings were normalized to DMSO only treated cells, and normalized activities were utilized for EC50 calculations using the dose-response log (inhibitor) vs. response-variable slope (four parameters) nonlinear regression feature available in GraphPad Prism 5.0 (or Dotmatics).

[5] = tested on: primary human mesenchymal stem cells (hMSCs); experiment: Induction of chondrogenesis in hMSCs (nodule imaging, Rhodamine B / Nile Red); details: 6 days, relative to TGF-β3 (10 ng/mL) positive control, read-out: Max. Activity as % TGF-β3 activity
Text: Representative compounds were screened using primary human mesenchymal stem cells (hMSCs) to determine their ability to induce chondrogenesis (process by which cartilage is developed).
Primary human mesenchymal stem cells (hMSCs) were purchased from Lonza (Walkersville, Md.) and expanded in Mesenchymal Stem Cell Growth Media (Lonza). Cells between passage 3 and 6 were used for the experiments.
Area of nodules in each well was normalized to the average of 3 DMSO treated wells on the same plate using Excel (Microsoft Inc.). The normalized averages (fold change over DMSO) of 2 or 3 replicate wells for each compound concentration were calculated. Due to solubility limitations of some of the compounds, curve fitting was incomplete leading to inaccurate EC50 determinations.
Using TGF-β3 as a positive control, the concentration of representative compounds required to induce 50% levels of chondrogenesis is reported. In addition, the maximum activity of each compound and the respective dose that each compound reached maximum chondrogenesis activity is reported.

| SMILES | EC50 [1] [µM] | EC50 [2] [µM] | EC50 [3] [µM] | EC50 [4] [µM] | Emax [5] [%] | inhibition at 10 µM [1] [%] | inhibition at 10 µM [3] [%] | inhibition at 10 µM [2] [%] |
| --- | --- | --- | --- | --- | --- | --- | --- | --- |
| CCC(=O)Nc1cncc(-c2ccc3[nH]nc(-c4cc5c(-c6cccc(F)c6)cncc5[nH]4)c3c2)c1 [Compound 1] | 0.062 | 0.045 | 0.094 | 0.045 | 34 | – | – | – |
| Nc1cncc(-c2ccc3[nH]nc(-c4cc5c(N6CCCCC6)cncc5[nH]4)c3c2)c1 [Compound 171, 5-(3-(4-(Piperidin-1-yl)-1H-pyrrolo[2,3-c]pyridin-2-yl)-1H-indazol-5-yl) pyridin-3-amine] | > 10 | 1.54 | > 10 | 3.65 | – | 9.8 | 43 | – |
| c1cc(-c2ccc3[nH]nc(-c4cc5c(-c6ccsc6)cncc5[nH]4)c3c2)ccn1 [Compound 298, 5-(Pyridin-4-yl)-3-(4-(thiophen-3-yl)-1H-pyrrolo[2,3-c]pyridin-2-yl)-1H-indazole] | 0.716 | 1.09 | 1.35 | 1.33 | – | – | – | – |
| c1cc(-c2cncc3[nH]c(-c4n[nH]c5ccc(-c6cncc(CN7CCCCC7)c6)cc45)cc23)co1 [Compound 323, 3-(4-(Furan-3-yl)-1H-pyrrolo[2,3-c]pyridin-2-yl)-5-(5-(piperidin-1-ylmethyl)pyridin-3-yl)-1H-indazole] | 1.39 | 0.219 | 0.57 | 0.418 | – | – | – | – |
| CS(=O)(=O)NCc1cc(F)cc(-c2cncc3[nH]c(-c4n[nH]c5ccc(-c6cncc(NC(=O)Cc7ccccc7)c6)cc45)cc23)c1 [Compound 486, N-(5-(3-(4-(3-Fluoro-5-(methylsulfonamidomethyl)phenyl)-1H-pyrrolo[2,3-c]pyridin-2-yl)-1H-indazol-5-yl)pyridin-3-yl)-2-phenylacetamide] | 4.77 | 0.574 | > 10 | 3.48 | – | – | 45.4 | – |
| CC(C)Nc1cncc(-c2ccc3[nH]nc(-c4cc5c(-c6cc(F)cc(CNS(C)(=O)=O)c6)cncc5[nH]4)c3c2)c1 [Compound 488, N-(3-Fluoro-5-(2-(5-(5-(isopropylamino)pyridin-3-yl)-1H-indazol-3-yl)-1H-pyrrolo[2,3-c]pyridin-4-yl)benzyl)methanesulfonamide] | 2.22 | 0.13 | 1.65 | 0.759 | – | – | – | – |
| CCCCC(=O)Nc1cncc(-c2ccc3[nH]nc(-c4cc5c(-c6cc(F)cc(CNS(C)(=O)=O)c6)cncc5[nH]4)c3c2)c1 [Compound 495, N-(5-(3-(4-(3-Fluoro-5-(methylsulfonamidomethyl)phenyl)-1H-pyrrolo[2,3-c]pyridin-2-yl)-1H-indazol-5-yl)pyridin-3-yl)pentanamide] | > 10 | 0.397 | 3.44 | 1.73 | – | 3.3 | – | – |
| CS(=O)(=O)NCc1cc(F)cc(-c2cncc3[nH]c(-c4n[nH]c5ccc(-c6cncnc6)cc45)cc23)c1 [Compound 503, N-(3-Fluoro-5-(2-(5-(pyrimidin-5-yl)-1H-indazol-3-yl)-1H-pyrrolo[2,3-c]pyridin-4-yl)benzyl)methanesulfonamide] | > 10 | 0.042 | > 10 | 2.54 | – | 17.1 | 20.3 | – |
| Fc1ccc(-c2cncc3[nH]c(-c4n[nH]c5ccc(C6=CCNCC6)cc45)cc23)cc1 [Compound 522, 3-(4-(4-Fluorophenyl)-1H-pyrrolo[2,3-c]pyridin-2-yl)-5-(1,2,3,6-tetrahydropyridin-4-yl)-1H-indazole] | 2.69 | > 10 | 1.67 | 3.98 | – | – | – | 22 |
| CN(C)CCOc1cncc(-c2ccc3[nH]nc(-c4cc5c(-c6ccc(F)cc6)cncc5[nH]4)c3c2)c1 [Compound 531, 2-((5-(3-(4-(4-Fluorophenyl)-1H-pyrrolo[2,3-c]pyridin-2-yl)-1H-indazol-5-yl)pyridin-3-yl)oxy)-N,N-dimethylethan-1-amine] | 0.607 | 2.76 | 0.976 | 2.01 | – | – | – | – |
| Fc1ccccc1-c1cncc2[nH]c(-c3n[nH]c4ccc(-c5cn[nH]c5)cc34)cc12 [Compound 539, 3-(4-(2-Fluorophenyl)-1H-pyrrolo[2,3-c]pyridin-2-yl)-5-(1H-pyrazol-4-yl)-1H-indazole] | 0.164 | 0.037 | 0.134 | 0.049 | – | – | – | – |
| Fc1ccccc1-c1cncc2[nH]c(-c3n[nH]c4ccc(-c5cncc(OC6CCNCC6)c5)cc34)cc12 [Compound 544, 3-(4-(2-Fluorophenyl)-1H-pyrrolo[2,3-c]pyridin-2-yl)-5-(5-(piperidin-4-yloxy)pyridin-3-yl)-1H-indazole] | 2.76 | 0.436 | 1.35 | 1.83 | – | – | – | – |
| NC1CN(c2cncc(-c3ccc4[nH]nc(-c5cc6c(N7CCCCC7)cncc6[nH]5)c4c3)n2)C1 [Compound 606, 1-(6-(3-(4-(Piperidin-1-yl)-1H-pyrrolo[2,3-c]pyridin-2-yl)-1H-indazol-5-yl)pyrazin-2-yl)azetidin-3-amine] | 0.486 | 0.306 | 2.81 | 0.738 | – | – | – | – |
| c1ncc(-c2ccc3[nH]nc(-c4cc5c(N6CCCCC6)cncc5[nH]4)c3c2)cc1OC1CCCCC1 [Compound 607, 5-(5-(Cyclohexyloxy)pyridin-3-yl)-3-(4-(piperidin-1-yl)-1H-pyrrolo[2,3-c]pyridin-2-yl)-1H-indazole] | 0.647 | 4.45 | 1.98 | 1.12 | – | – | – | – |
| CS(=O)(=O)NCc1cc(F)cc(-c2cncc3[nH]c(-c4n[nH]c5ccc(-c6cncc(OCc7ccccc7)c6)cc45)cc23)c1 [Compound 774, N-(3-(2-(5-(5-(Benzyloxy)pyridin-3-yl)-1H-indazol-3-yl)-1H-pyrrolo[2,3-c]pyridin-4-yl)-5-fluorobenzyl)methanesulfonamide] | 1.49 | > 10 | 2.01 | 2.15 | – | – | – | 45 |
